In patent US11472804B2, “Compositions and methods for modulating hair growth” (The Regents of the University of California, priority 2017, dated 2022):
Entries after “also recorded” stand apart in the source; their conditions may differ.

Legend:
[1] = tested on: hair cycle; assay: Topical treatment of mice in telogen with UK-5099, hair cycle; assay type: in vivo
Description: (§1) FIG. 7A: Animals treated topically with UK-5099 (20 μM) show pigmentation and hair growth, indicative of entry into anagen, after 8 days of treatment. Full anagen, indicated by full coat of hair, is achieved after 14 days of treatment. […] Images shown are representative of at least 14 mice from 7 independent experiments. Scale bars indicate 100 micrometers. FIG. 7B: Graph showing time to observed phenotype in vehicle versus UK-5099 treated mice. n=6 mice per condition. Shown as mean±SEM. […] Ldh activity is indicated by purple stain; pink is nuclear fast red counterstain. Scale bars indicate 50 micrometers. FIG. 7D: Metabolomic analysis of Lactate on HFSCs isolated from UK-5099 treated skin for 48 hours; Each bar represents the average signal for each condition where n=9 mice pooled from 3 independent experiments. Shown as mean±SEM. Paired t-test was performed, p<0.05.
(§2) Quantification of the hair cycle across at least 6 pairs of animals (vehicle vs UK-5099) indicated a strong acceleration of the hair cycle, in as few as 6-9 days (FIG. 7B).

[2] = tested on: Ldh; assay: Ldh enzyme activity assay in the epidermis of topically treated animals; assay type: in vivo, mice; conditions: topical, 48 hours during telogen
Description: as §1
To determine whether Ldha expression patterns correlate with activity of the Ldh enzyme, a colorimetric-based enzymatic assay was used to assess Ldh activity capacity in situ. Typically performed on protein lysates or aliquots with a plate reader, the Ldh activity assay was adapted to work in situ on frozen tissue sections. […]
as §2

[3] = tested on: HFSCs; assay: Metabolomic analysis of lactate on HFSCs isolated from treated skin; assay type: in vivo, mice; conditions: topical application, treated skin for 48 hours
Description: as §1, §2

[4] = topical treatment of animals in telogen (day 50)

Structure (SMILES): N#C/C(=C\c1cn(-c2ccccc2)c2ccccc12)C(=O)O [UK-5099, (E)-2-Cyano-3-(1-phenyl-1H-indol-3-yl)acrylic acid]
- acceleration of the hair cycle [1, 4]: robust acceleration of the hair cycle
- proliferation of the interfollicular epidermis [1, 4]: minor hyperproliferation of the interfollicular epidermis
- skin pathology, hair cycle stage ([1]; topical, 20 μM, at 8 weeks): enter an accelerated anagen
- full anagen, indicated by full coat of hair, time of treatment ([1]; topical, 20 μM, mice): 14 days
- pigmentation and hair growth, indicative of entry into anagen, time of treatment ([1]; topical, 20 μM, mice): 8 days
- quantification of the hair cycle, time to acceleration ([1]; topical, at least 6 pairs of animals, vehicle vs UK-5099): 6 to 9 days
- Ldh activity in HFSCs and interfollicular epidermis [2]: increased Ldh activity; also recorded: Ldh enzyme activity also seen in interfollicular epidermis
- total levels of lactate in sorted HFSCs [3]: increases total levels of lactate
